Assay results from ChEMBL document CHEMBL6087393, “Sensitive quantification of fibroblast activation protein and high-throughput screening for inhibition by FDA-approved compounds” (Eur J Med Chem, 2024).
pIC50: −log10 of the molar value.

Assays:
[1] = target: T1, Prolyl endopeptidase FAP (Homo sapiens, UniProt Q12884); experiment: Inhibition of recombinant human FAP extracted from S2 cells using fluorogenic FAP as specific substrate measured after 10 mins incubation by 7-amino-4-methylcoumarin in assay
T1 sequence (Q12884 whole entry): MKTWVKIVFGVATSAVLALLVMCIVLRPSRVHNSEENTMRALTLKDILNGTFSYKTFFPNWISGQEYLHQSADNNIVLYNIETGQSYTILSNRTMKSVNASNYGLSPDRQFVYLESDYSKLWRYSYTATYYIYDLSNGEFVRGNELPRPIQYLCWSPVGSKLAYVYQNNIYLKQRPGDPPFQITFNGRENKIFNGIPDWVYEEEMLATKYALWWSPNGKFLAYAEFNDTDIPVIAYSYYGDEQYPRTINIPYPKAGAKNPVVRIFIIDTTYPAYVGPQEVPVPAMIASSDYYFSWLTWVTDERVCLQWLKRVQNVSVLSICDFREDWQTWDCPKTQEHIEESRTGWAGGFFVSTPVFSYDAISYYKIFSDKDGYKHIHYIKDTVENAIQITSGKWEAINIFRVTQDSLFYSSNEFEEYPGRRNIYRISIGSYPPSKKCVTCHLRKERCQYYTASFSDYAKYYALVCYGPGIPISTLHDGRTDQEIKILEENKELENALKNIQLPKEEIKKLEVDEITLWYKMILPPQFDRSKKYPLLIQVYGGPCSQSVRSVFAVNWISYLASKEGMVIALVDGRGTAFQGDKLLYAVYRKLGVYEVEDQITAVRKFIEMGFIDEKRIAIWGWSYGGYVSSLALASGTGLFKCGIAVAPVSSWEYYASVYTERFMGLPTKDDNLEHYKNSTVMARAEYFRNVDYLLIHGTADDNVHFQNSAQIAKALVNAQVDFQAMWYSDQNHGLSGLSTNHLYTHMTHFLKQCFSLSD

[2] = clinical; conditions: human

Row | Structure (SMILES) | pIC50 [1] | Cmax [2] [nM]
1 | C[C@H](Cn1cnc2c(N)ncnc21)OCP(=O)(O)O [TENOFOVIR ANHYDROUS] | < 4.00 | –
2 | Cc1cc2ncc(C(=O)NCC(C)(C)NCC(=O)N3CCC[C@H]3C#N)cn2n1 [ANAGLIPTIN] | – | 1200
3 | CC#CCn1c(N2CCC[C@@H](N)C2)nc2c1c(=O)n(Cc1nc(C)c3ccccc3n1)c(=O)n2C [LINAGLIPTIN] | – | 12
4 | Nc1ncnc2c1ncn2CCOCP(=O)(O)O [ADEFOVIR] | < 4.00 | –
